“And” between values parts separate entries of the source, which are not always exact repeats. Equal entries are not always repeated.
Columns and labels:
[1] = tested on: mechanical hyperalgesia in diabetic animals; assay: Streptozotocin diabetic neuropathy, mechanical hyperalgesia (Randall and Sellito); assay type: in vivo, rat; settings: diabetic rats
Experimental: Male Sprague-Dawley rats weighing 160-180 g received an intra-peritoneal injection of streptozotocin (75 mg/kg body weight) dissolved in pH 4.6 citrate buffer. One week later diabetic animals were identified by measuring the blood glucose level, and those with a blood glucose level of ≧17 mM were included in the study. Three and four weeks after administration of streptozotocin the mechanical reaction threshold was measured in diabetic animals by the method of Randall and Sellito (1957 Arch. Int. Pharmacody. […]:409-419) before (pre-test) and at various times after administration of the test substance or vehicle (post-test). […] The maximum pressure exerted on the rear paw was 250 g. The end point of the mechanical reaction threshold in grams was determined based on the reaction of the animal (withdrawal of the rear paw, vocalisation or evasive reaction). The size of the cohort in the individual dose stages was n=10. The maximum possible response in percent (% MPE=% of maximum possible effect) was calculated according to the formula:
% MPE=(post-test−pre-test)/(250−pre-test)×100.
ED50 values (dose at which 50% maximum inhibition occurred) were determined by regression analysis from the % MPE values at the time of the maximum effect.

[2] = tested on: polyneuropathic pain, withdrawal threshold of rear paw; assay: Polyneuropathy (streptozotocin-induced diabetic neuropathy, STZ), withdrawal threshold by Randall and Selitto; assay type: in vivo, rat
Experimental: Male Sprague Dawley rats (140-180g, Janvier, France) are kept under standard conditions (06.00-18.00 hours light, 18.00-06.00 hours darkness; 20°-24° C. room temperature; 35-70% relative atmospheric humidity, tap water and standard feed as desired) in groups of five animals in Macrolon type 4 cages.
Rats receive a single i.p. dose of Streptozotocin (STZ, Sigma Aldrich Chemie, Germany) or vehicle (0.1 mM citrate buffer, pH 4.6). After one week the blood sugar values are determined and animals treated with STZ that have a blood sugar value of ≧17 mM are classed as diabetic in the experiment. Diabetic animals develop a hypersensitivity in the rear paws. The hypersensitivity to a pressure stimulus can be measured using a pressure pain instrument (algesiometer; Ugo Basile, Italy) according to the method of Randall and Selitto (Arch. Int. Pharmcodyn. 1957; 111: 409-19) in diabetic animals compared to healthy control animals of the same weight, in the third week after STZ treatment. After the animals had become accustomed to the surroundings, the rear right paw of damaged (diabetic) and undamaged (healthy) animals was subjected to increasing pressure on the upper side of the paw until the corresponding paw is withdrawn or the animal gives a vocal response. This value defines the withdrawal threshold of a test time point. Diabetic and healthy animals are tested before and at various times after administration of the substance or vehicle. For each animal the difference between the test value and pre-test is determined, and for the groups, each consisting of ten animals, the result is expressed as the mean value (MW) and standard error of the mean (SEM). The difference between the mean difference values of the diabetic and healthy animals defines the polyneuropathy-induced hypersensitivity. The statistical significance of the effect of a substance is determined on the basis of the difference values with respect to the vehicle group for diabetic and healthy animals by means of bifactorial variance analysis and post hoc analysis according to Bonferroni.

CC[C@@H](c1cccc(O)c1)[C@@H](C)CN(C)C [Compound 9, (1R,2R)-3-(3-dimethylamino-1-ethyl-2-methylpropyl)-phenol]
ED50 ([1]; Rattus norvegicus, ip, i.p., read-out: Mechanical hyperalgesia ED50 (95% confidence region)): 8.9 mg/kg
Mechanical hyperalgesia Maximum effect in % MPE ([1]; 31.6 mg/kg i.p.): 100% (31.6 mg/kg) % MPE
maximum effect compared among the tested compounds ([1]; i.p.): highest maximum effect
withdrawal threshold, test value - pre-test value (MW) ([2]; 0.1 mg/kg i.v., Diabetes, 15 min): 1.0 g
withdrawal threshold, test value - pre-test value (MW) ([2]; 0.1 mg/kg i.v., Diabetes, 30 min): -2.0 g
withdrawal threshold, test value - pre-test value (MW) ([2]; 0.1 mg/kg i.v., Diabetes, 45 min): 6.0 g
withdrawal threshold, test value - pre-test value (MW) ([2]; 0.1 mg/kg i.v., Diabetes, 60 min): -2.0 g
withdrawal threshold, test value - pre-test value (MW) ([2]; 0.1 mg/kg i.v., Naive, 15 min): 4.0 g
withdrawal threshold, test value - pre-test value (MW) ([2]; 0.1 mg/kg i.v., Naive, 30 min): -12.0 g
withdrawal threshold, test value - pre-test value (MW) ([2]; 0.1 mg/kg i.v., Naive, 45 min): -2.0 g
withdrawal threshold, test value - pre-test value (MW) ([2]; 0.1 mg/kg i.v., Naive, 60 min): -5.0 g
withdrawal threshold, test value - pre-test value (MW) ([2]; 0.316 mg/kg i.v., Diabetes, 15 min): 35.0 g
withdrawal threshold, test value - pre-test value (MW) ([2]; 0.316 mg/kg i.v., Diabetes, 30 min): 30.0 g
withdrawal threshold, test value - pre-test value (MW) ([2]; 0.316 mg/kg i.v., Diabetes, 45 min): 24.0 g
withdrawal threshold, test value - pre-test value (MW) ([2]; 0.316 mg/kg i.v., Diabetes, 60 min): 16.0 g
withdrawal threshold, test value - pre-test value (MW) ([2]; 0.316 mg/kg i.v., Naive, 15 min): 17.0 g
withdrawal threshold, test value - pre-test value (MW) ([2]; 0.316 mg/kg i.v., Naive, 30 min): -5.0 g
withdrawal threshold, test value - pre-test value (MW) ([2]; 0.316 mg/kg i.v., Naive, 45 min): -5.0 g
withdrawal threshold, test value - pre-test value (MW) ([2]; 0.316 mg/kg i.v., Naive, 60 min): 2.0 g
withdrawal threshold, test value - pre-test value (MW) ([2]; 1 mg/kg i.v., Diabetes, 45 min): 34.0 g
withdrawal threshold, test value - pre-test value (MW) ([2]; 1 mg/kg i.v., Diabetes, 60 min): 27.0 g
withdrawal threshold, test value - pre-test value (MW) ([2]; 1 mg/kg i.v., Naive, 15 min): 42.0 g
withdrawal threshold, test value - pre-test value (MW) ([2]; 1 mg/kg i.v., Naive, 30 min): 28.0 g
withdrawal threshold, test value - pre-test value (MW) ([2]; 1 mg/kg i.v., Naive, 45 min): -2.0 g
withdrawal threshold, test value - pre-test value (MW) ([2]; 1 mg/kg i.v., Naive, 60 min): 7.0 g
inhibition of the polyneuropathically-induced withdrawal threshold reduction ([2]; 1 mg/kg i.v., after 15 minutes and 30 minutes, diabetic animals): complete inhibition
statistically significant minimal effective dose ([2]; i.v., healthy control animals): 1 mg/kg
dosage at which complete inhibition is reached ([2]; i.v., polyneuropathic pain model): 1 mg/kg
statistically significant minimal effective dose ([2]; i.v., rear paw of diabetic rats): 0.316 mg/kg and 0.3 mg/kg
